Experimental data reported in patent US8748339B2, “Synergistic fungicidal mixtures” (priority 2008, dated 2014).
Like-named read-outs stand apart in the source and are kept apart here.

Legend:
Format in all cases: cell-based
Phytophthora infestans = details: single active compound, 7 days after inoculation
Septoria tritici = assay: Activity against leaf blotch on wheat caused by Septoria tritici in the microtiter test (Septtr); details: single active compound, day 7 after inoculation
Pyrenophora teres = assay: Activity against Pyrenophora teres in the microtiter test (Pyrnte); details: single active compound, day 7 after inoculation
Fusarium culmorum = assay: Activity against Fusarium culmorum in the microtiter test (Fusacu); details: single active compound, day 7 after inoculation

For “zinc propylenebis(dithiocarbamate) polymer [Propineb]”, the “Observed efficacy [%]” value (Phytophthora infestans; 1 ppm) was 21%.
For `CCO[PH](=O)O` [Fosetyl-Al], the “Observed efficacy [%]” value (Phytophthora infestans; 16 ppm) was 35%.
With `N#Cc1c(Cl)c(Cl)c(Cl)c(C#N)c1Cl` [Chlorothalonil, 2,4,5,6-tetrachloroisophthalonitrile] the “Observed efficacy [%]” value (Septoria tritici; 0.25 ppm) was 46%.
For `Cc1cc(C2CC2)nc(Nc2ccccc2)n1` [Cyprodinil, (4-cyclopropyl-6-methylpyrimidin-2-yl)phenylamine], the “Observed efficacy [%]” value (Septoria tritici; 1 ppm) was 13%.
`C=CCSC(=O)n1c(N)c(-c2ccccc2C)c(=O)n1C(C)C` [I.1, 5-amino-2-isopropyl-3-oxo-4-o-tolyl-2,3-dihydro-pyrazole-1-carbothioic acid ally ester] was tested, and the “Observed efficacy [%]” value (Phytophthora infestans; 16 ppm) was 16%, the “Observed efficacy [%]” value (Phytophthora infestans; 63 ppm) was 37% and the “Observed efficacy [%]” value (Septoria tritici; 4 ppm) was 37%. For the same compound, the “Observed efficacy [%]” value (Pyrenophora teres; 1 ppm) was 34% and the “Observed efficacy [%]” value (Fusarium culmorum; 63 ppm) was 14%.
For `COC(=O)N(OC)c1ccccc1COc1ccn(-c2ccc(Cl)cc2)n1` [Pyraclostrobin, methyl N-{2-[1-(4-chlorophenyl)-1H-pyrazol-3-yloxymethyl]phenyl}(N-methoxy)carbamate], the “Observed efficacy [%]” value (Fusarium culmorum; 0.25 ppm) was 5%.
For `COC=C(C(=O)OC)c1ccccc1COc1cccc(C(F)(F)F)n1` [Picoxystrobin, methyl 3-methoxy-2-[2-(6-trifluoromethylpyridin-2-yloxymethyl)phenyl]-acrylate], the “Observed efficacy [%]” value (Pyrenophora teres; 0.016 ppm) was 31%.
